We go through two molecules from patent publication US20250361273A1, “METHODS AND COMPOSITIONS” (priority 2024, published 2025).

One assay addresses MC1R (Homo sapiens, UniProt Q01726). Description: cAMP assay (human receptors), DiscoverX HitHunter, MC1R. In general terms: cAMP levels reflect the balance of adenylyl cyclase and phosphodiesterase activity.
For a further assay, the system named is MC4R vs MC1R. Description: Selectivity calculation MC4R vs MC1R (division of cAMP EC50 values). The assay is classed as cell-based, human. The procedure: Peptides, including comparator molecules were tested by assays listed below. Selectivity between receptors was assessed in part using cAMP assays, which test the activity of peptides through the Gs pathway.
Selectivity between any two receptors was calculated by a division of the EC50 values between the two receptors, for each individual peptide.

In a further assay the target is T1, MC4R (Homo sapiens, UniProt P32245).
T1 construct: host or cells: HEK293 (cAMP Hunter and PathHunter MC4R cell lines)
Description: Bias calculation MC4R B-arrestin v MC4R cAMP. The format is cell-based.

The structures appear in SMILES notation. pEC50: −log10 of the molar value. Where a SMILES comes first, the peptide text is derived from it. Bridges are numbered along the chain shown (N, C = ends). [ ]: non-standard residue; d: D form. Trp(6-F) = N[C@@H](Cc1c[nH]c2cc(F)ccc12)C(=O)O; dPhe(4-F) = N[C@H](Cc1ccc(F)cc1)C(=O)O; dAgb = N=C(N)NCC[C@@H](N)C(=O)O; Ac4c(3-oxa) = NC1(C(=O)O)COC1; Pen = CC(C)(S)[C@H](N)C(=O)O

T1 sequence (P32245 whole entry): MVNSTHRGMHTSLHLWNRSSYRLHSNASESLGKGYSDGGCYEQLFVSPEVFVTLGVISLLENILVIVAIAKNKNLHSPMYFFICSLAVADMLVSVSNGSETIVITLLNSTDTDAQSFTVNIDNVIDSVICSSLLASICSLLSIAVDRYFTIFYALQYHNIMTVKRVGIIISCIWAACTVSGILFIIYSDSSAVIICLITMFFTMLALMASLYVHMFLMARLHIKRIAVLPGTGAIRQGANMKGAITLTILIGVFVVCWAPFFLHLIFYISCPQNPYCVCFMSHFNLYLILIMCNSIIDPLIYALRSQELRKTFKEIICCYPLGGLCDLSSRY
Sequence of MC1R (Q01726 whole entry): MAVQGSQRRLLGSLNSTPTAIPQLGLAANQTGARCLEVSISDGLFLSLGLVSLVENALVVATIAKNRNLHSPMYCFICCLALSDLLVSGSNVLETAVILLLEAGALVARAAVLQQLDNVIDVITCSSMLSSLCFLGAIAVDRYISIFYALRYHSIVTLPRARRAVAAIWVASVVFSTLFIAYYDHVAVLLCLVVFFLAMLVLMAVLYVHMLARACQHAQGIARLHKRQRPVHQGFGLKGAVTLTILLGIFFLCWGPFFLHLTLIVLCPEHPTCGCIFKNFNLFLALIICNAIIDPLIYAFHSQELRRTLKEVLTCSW

For orientation: pEC50 means −log10 of the EC50, conventionally taken in molar units. Low values mean a high EC50, high ones a low EC50. The molecule `CCCC[C@H](NC(C)=O)C(=O)N[C@H]1CC(=O)NCCCC[C@@H](C(=O)O)NC(=O)[C@H](Cc2c[nH]c3ccccc23)NC(=O)[C@H](CCCN=C(N)N)NC(=O)[C@@H](Cc2ccccc2)NC(=O)[C@H](Cc2cnc[nH]2)NC1=O` [Bremelanotide] had a pEC50 on MC1R of 9.77.
Turning to `CC(=O)N[C@H](CCNC(=N)N)C(=O)N[C@H]1CSSC(C)(C)[C@@H](C(N)=O)NC(=O)[C@H](Cc2c[nH]c3cc(F)ccc23)NC(=O)[C@H](CCCNC(=N)N)NC(=O)[C@@H](Cc2ccc(F)cc2)NC(=O)[C@H](CCC(N)=O)NC(=O)C2(COC2)NC1=O` [Molecule 1158, (7R,12R,15S,18S,21R,24S)-7-((R)-2-acetamido-4-guanidinobutanamido)-24-(3-amino-3-oxopropyl)-15-((6-fluoro-1H-indol-3-yl)methyl)-21-(4-fluorobenzyl)-18-(3-guanidinopropyl)-11,11-dimethyl-6,14,17,20,23,26-hexaoxo-2-oxa-9,10-dithia-5,13,16,19,22,25-hexaazaspiro[3.22]hexacosane-12-carboxamide] (Ac-[dAgb]C[Ac4c(3-oxa)]Q[dPhe(4-F)]R[Trp(6-F)][Pen]-NH2; disulfide 2-8), the “Selectivity: MC4R v MC1R” value in the assay on MC4R vs MC1R (Compounds with Gln at X4, larger values indicate selectivity towards MC4R) was “*** (*** denotes MC4R vs MC1R selectivity of about >7.40)”; with MC4R vs MC1R (Table 6 (A), larger values indicate selectivity towards MC4R), “*** (*** denotes MC4R vs MC1R selectivity of about >7.40)”; in the assay with MC4R vs MC1R (Table 6 (B), larger values indicate selectivity towards MC4R) it was “*** (*** denotes MC4R vs MC1R selectivity of about >7.40)”; with MC4R vs MC1R (Table 7, Aib(O-cyclic) at X3, larger values indicate selectivity towards MC4R), “*** (*** denotes MC4R vs MC1R selectivity of about >7.40)”; in the assay on MC4R vs MC1R (Table 14, Aib(O-cyclic) at X3, larger values indicate selectivity towards MC4R) it was “*** (*** denotes MC4R vs MC1R selectivity of about >7.40)”; with MC4R vs MC1R (Table 20, Gln at X4), “*** (*** denotes MC4R vs MC1R selectivity of about >7.40)”. For the same molecule, in the assay on MC4R vs MC1R (calculated from cAMP functional screening, larger values indicate selectivity towards MC4R), the “Selectivity: MC4R v MC1R” value was “*** (*** denotes MC4R vs MC1R selectivity of about >7.40)”. The “Bias: MC4R B-arrestin v MC4R cAMP” value at MC4R (Compounds with Gln at X4, larger values indicate bias towards B-arrestin) is “+ (+ denotes MC4R B-arrestin v MC4R cAMP bias having a range of >0.00 to ≤2.00)”; on MC4R (Table 6 (B), larger values indicate bias towards B-arrestin) it was “+ (+ denotes MC4R B-arrestin v MC4R cAMP bias having a range of >0.00 to ≤2.00)”; on MC4R (Table 7, Aib(O-cyclic) at X3, larger values indicate bias towards B-arrestin), “+ (+ denotes MC4R B-arrestin v MC4R cAMP bias having a range of >0.00 to ≤2.00)”; on MC4R (Table 20, Gln at X4) it was “+ (+ denotes MC4R B-arrestin v MC4R cAMP bias having a range of >0.00 to ≤2.00)”.
